# Assays:
# [1] = tested on: rat; details: Subchronic oral toxicity in rodents, sprague dawley, Feed, dose end: 13 week, group: systemic
# [2] = tested on: rabbit; details: Prenatal developmental toxicity study, new zealand white, Oral, Gavage/Intubation, dose end: 19 GD
# [3] = tested on: rat; details: Prenatal developmental toxicity study, other, Oral, Gavage/Intubation, dose end: 15 GD
# [4] = tested on: dog; details: Chronic toxicity, beagle, Injection, Subcutaneous, dose end: 74 week, group: systemic
# [5] = tested on: mouse; details: Carcinogenicity; other; Oral; Feed; dose end: 24 month; group: systemic; systemic / clinical chemistry / alkaline phosphatase (alp/alk) / alkaline phosphatase (alp/alk) + systemic / organ weight / heart / nos + …
# [6] = tested on: rat; details: Multigenerational reproductive toxicity study, sprague dawley, Oral, Feed, dose end: 2 generation
# [7] = tested on: rat; details: Subchronic oral toxicity in rodents, wistar, Feed, dose end: 13 week, group: systemic, systemic / clinical chemistry / [other] / [other] + systemic / clinical chemistry / alkaline phosphatase (alp/alk) / alkaline phosphatase (…
# [8] = tested on: rat; details: Combined chronic toxicity/carcinogenicity, other, Oral, Feed, dose end: 2 year, group: systemic
# [9] = tested on: mouse; details: Subchronic oral toxicity in rodents, other, Feed, dose end: 13 week, group: systemic
# [10] = tested on: dog; details: Chronic toxicity, beagle, Oral, Feed, dose end: 15 month, group: systemic
# [11] = tested on: rat; details: Combined chronic toxicity/carcinogenicity, wistar, Oral, Feed, dose end: 2 year, group: systemic
# [12] = tested on: rat; details: Developmental neurotoxicity study; other; Injection; Intraperitoneal; dose end: 141 PND; group: cannot be grouped; systemic / clinical chemistry / norepinephrine (noradrenaline) / norepinephrine (noradrenaline) + systemic / in life observation / water …
# [13] = tested on: rat; details: Developmental neurotoxicity study; wistar; Oral; Water; dose end: 60 PND; group: cannot be grouped; systemic / in life observation / body weight / offspring (pup) weight gain
# [14] = tested on: rat; details: Combined chronic toxicity/carcinogenicity, other, Oral, Feed, dose end: 2 year, group: systemic; remark: listed apart in the source
# [15] = tested on: dog; details: Chronic toxicity; beagle; Oral; Capsule; dose end: 12 month; group: systemic; systemic / in life observation / clinical signs / fur (altered appearance) + systemic / in life observation / clinical signs / skin …
# [16] = tested on: mouse; details: Carcinogenicity, other, Oral, Feed, dose end: 18 month, group: systemic
# [17] = tested on: rat; details: Multigenerational reproductive toxicity study, other, Oral, Feed, dose end: 2 generation
# [18] = tested on: rabbit; details: Prenatal developmental toxicity study, other, Oral, Gavage/Intubation, dose end: 19 GD
# [19] = tested on: dog; details: Subchronic oral toxicity in nonrodent, beagle, Capsule, dose end: 91 day, group: systemic
# [20] = tested on: rat; details: Subchronic oral toxicity in rodents, other, Feed, dose end: 3 month, group: systemic
# [21] = tested on: rat; details: Prenatal developmental toxicity study, fischer, Dermal, Topical, dose end: 15 GD, group: maternal
# [22] = tested on: rat; details: Carcinogenicity, fischer, Oral, Gavage/Intubation, dose end: 24 month, group: systemic
# [23] = tested on: mouse; details: Carcinogenicity, b6c3f1, Oral, Gavage/Intubation, dose end: 18 month, group: systemic
# [24] = systemic / clinical chemistry / alanine aminotransferase (alt/sgpt) / alanine aminotransferase (alt/sgpt) + systemic / clinical chemistry / …
# [25] = systemic / urinalysis / appearance and color / appearance and color + systemic / organ weight / liver / relative to body weight
# [26] = group: developmental, developmental / developmental malformation / general / [other] + developmental / developmental malformation / bone / arthrogryposis + …
# [27] = group: maternal, systemic / in life observation / body weight / body weight + systemic / in life observation / food consumption / food efficiency + systemic…
# [28] = group: developmental, developmental / developmental malformation / bone / incomplete ossification + developmental / developmental malformation / bone / unossified
# [29] = group: maternal, reproductive / reproductive performance / aborted / aborted + systemic / in life observation / body weight / body weight + systemic / in …
# [30] = systemic / clinical chemistry / cholesterol / cholesterol + systemic / clinical chemistry / glucose / glucose + systemic / hematology / […
# [31] = systemic / clinical chemistry / cholesterol / cholesterol + systemic / hematology / [other] / [other] + systemic / hematology / hematocrit (…
# [32] = group: offspring, developmental / developmental landmark / eye opening / eye opening + developmental / developmental landmark / incisor eruption / incisor …
# [33] = group: offspring, systemic / organ weight / adrenal gland / absolute
# [34] = group: parental, systemic / organ weight / uterus / absolute
# [35] = systemic / pathology microscopic / lung / cholesterol cleft(s) + systemic / pathology microscopic / lung / foam cell aggregation
# [36] = systemic / pathology microscopic / lung / cholesterol cleft(s) + systemic / pathology microscopic / lung / foam cell aggregation + systemic…
# [37] = systemic / pathology microscopic / liver / necrosis
# [38] = systemic / pathology microscopic / liver / necrosis + systemic / clinical chemistry / [other] / [other] + systemic / pathology microscopic…
# [39] = systemic / pathology gross / liver / accentuated lobular pattern + systemic / pathology microscopic / liver / fatty change
# [40] = systemic / pathology gross / liver / accentuated lobular pattern + systemic / pathology microscopic / liver / fatty change + systemic / …
# [41] = systemic / clinical chemistry / albumin / albumin + systemic / clinical chemistry / alkaline phosphatase (alp/alk) / alkaline phosphatase (…
# [42] = systemic / in life observation / body weight / body weight + systemic / in life observation / body weight / body weight gain
# [43] = systemic / in life observation / body weight / body weight + systemic / in life observation / body weight / body weight gain + systemic / in…
# [44] = systemic / in life observation / body weight / body weight + systemic / in life observation / body weight / body weight gain + systemic / …
# [45] = group: offspring, systemic / in life observation / body weight / offspring (pup) weight
# [46] = group: offspring, systemic / in life observation / body weight / offspring (pup) weight + developmental / developmental landmark / eye opening / eye opening
# [47] = group: parental, systemic / pathology microscopic / kidney / pigmentation + systemic / pathology microscopic / spleen / erythrophagocytosis
# [48] = group: parental, systemic / pathology microscopic / kidney / pigmentation + systemic / pathology microscopic / spleen / erythrophagocytosis + systemic / in …
# [49] = group: developmental, developmental / developmental malformation / bone / fused
# [50] = group: maternal, systemic / in life observation / body weight / body weight gain + systemic / in life observation / food consumption / food consumption + …
# [51] = systemic / in life observation / clinical signs / vomitting + systemic / organ weight / liver / relative to body weight + systemic / …
# [52] = systemic / in life observation / body weight / body weight + systemic / pathology microscopic / liver / hypertrophy + systemic / pathology …
# [53] = systemic / in life observation / clinical signs / scabbing
# [54] = systemic / in life observation / body weight / body weight gain + systemic / in life observation / clinical signs / labored respiration + …
# [55] = systemic / organ weight / stomach / relative to body weight + systemic / in life observation / body weight / body weight gain
# [56] = systemic / organ weight / testes / relative to body weight
# [57] = systemic / organ weight / testes / relative to body weight + systemic / pathology microscopic / liver / carcinoma + systemic / hematology / …
smiles,measurement,setting,value
CCC(C)Nc1c([N+](=O)[O-])cc(C(C)(C)C)cc1[N+](=O)[O-] (centres undefined) [Butralin],LOAEL,[1]; [24],50 mg/kg/day
same,NOAEL,[1]; [24],10 mg/kg/day
same,LEL,[1]; [25],10 mg/kg/day
same,NEL,[1]; [25],< 10 mg/kg/day
same,LOAEL,"[2]; group: developmental, developmental / developmental malformation / general / [other]",45 mg/kg/day
same,LEL,[2]; [26],45 mg/kg/day
same,NEL,[2]; [26],15 mg/kg/day
same,NOAEL,[2]; [26],15 mg/kg/day
same,LOAEL,"[2]; group: maternal, systemic / in life observation / body weight / body weight + systemic / in life observation / food consumption / food efficiency",135 mg/kg/day
same,LEL,[2]; [27],135 mg/kg/day
same,NEL,[2]; [27],45 mg/kg/day
same,NOAEL,[2]; [27],45 mg/kg/day
same,LEL,[3]; [28],500 mg/kg/day
same,LOAEL,[3]; [28],500 mg/kg/day
same,NEL,[3]; [28],< 500 mg/kg/day
same,NOAEL,[3]; [28],< 500 mg/kg/day
same,LEL,[3]; [29],1250 mg/kg/day
same,LOAEL,[3]; [29],1250 mg/kg/day
same,NEL,[3]; [29],500 mg/kg/day
same,NOAEL,[3]; [29],500 mg/kg/day
CC(=O)[C@H]1CC[C@H]2[C@@H]3CCC4=CC(=O)CC[C@]4(C)[C@H]3CC[C@]12C [Progesterone],LOAEL,[4]; [30],> 22.5 mg/kg/day
same,NOAEL,[4]; [30],≥ 22.5 mg/kg/day
same,LEL,[4]; [31],2.5 mg/kg/day
same,NEL,[4]; [31],< 2.5 mg/kg/day
COC(=O)C(C)Oc1ccc(Oc2ccc(Cl)cc2Cl)cc1 (centres undefined) [Diclofop-methyl],LEL,[5],0.76 mg/kg/day
same,LOAEL,[5],0.76 mg/kg/day
same,NEL,[5],0.24 mg/kg/day
same,NOAEL,[5],0.24 mg/kg/day
same,LOAEL,[6]; [32],7.3 mg/kg/day
same,NOAEL,[6]; [32],2.1 mg/kg/day
same,LEL,[6]; [33],0.9 mg/kg/day
same,NEL,[6]; [33],< 0.9 mg/kg/day
same,LOAEL,"[6]; group: parental, systemic / organ weight / liver / absolute + systemic / organ weight / liver / relative to body weight",2.1 mg/kg/day
same,NOAEL,"[6]; group: parental, systemic / organ weight / liver / absolute + systemic / organ weight / liver / relative to body weight + systemic / organ weight / kidney / …",0.7 mg/kg/day
same,LEL,[6]; [34],0.9 mg/kg/day
same,NEL,[6]; [34],< 0.9 mg/kg/day
same,LEL,[7],6.32 mg/kg/day
same,LOAEL,[7],6.32 mg/kg/day
same,NOAEL,[7],1.56 mg/kg/day
same,LEL,[8]; [35],0.32 mg/kg/day
same,LOAEL,[8]; [35],0.32 mg/kg/day
same,NEL,[8]; [36],0.1 mg/kg/day
same,NOAEL,[8]; [36],0.1 mg/kg/day
same,LEL,[9]; [37],0.3 mg/kg/day
same,NEL,[9]; [37],< 0.3 mg/kg/day
same,LOAEL,[9]; [38],1 mg/kg/day
same,NOAEL,[9]; [38],0.3 mg/kg/day
same,LEL,[10]; [39],0.625 mg/kg/day
same,LOAEL,[10]; [39],0.625 mg/kg/day
same,NEL,[10]; [40],0.2 mg/kg/day
same,NOAEL,[10]; [40],0.2 mg/kg/day
same,LEL,[11]; [41],2.3 mg/kg/day
same,LOAEL,[11]; [41],2.3 mg/kg/day
same,NOAEL,[11]; [41],0.23 mg/kg/day
same,NEL,[11]; systemic / hematology / hemoglobin (hgb) / hemoglobin (hgb) + systemic / hematology / erythrocyte (rbc) count differential / erythrocyte (…,0.23 mg/kg/day
CC(C)NCC(O)COc1cccc2ccccc12.Cl (centres undefined) [Propranolol hydrochloride],LEL,[12],5 mg/kg/day
same,LOAEL,[12],> 5 mg/kg/day
same,NEL,[12],< 5 mg/kg/day
same,NOAEL,[12],≥ 5 mg/kg/day
same,LEL,[13],10 mg/kg/day
same,LOAEL,[13],> 10 mg/kg/day
same,NEL,[13],< 10 mg/kg/day
same,NOAEL,[13],≥ 10 mg/kg/day
CO/N=C(/C(=O)OC)c1ccccc1CO/N=C(\C)c1cccc(C(F)(F)F)c1 [Trifloxystrobin],LEL,[14]; [42],29.7 mg/kg/day
same,LOAEL,[14]; [42],29.7 mg/kg/day
same,NEL,[14]; [43],9.81 mg/kg/day
same,NOAEL,[14]; [43],9.81 mg/kg/day
same,LEL,[15],50 mg/kg/day
same,LOAEL,[15],50 mg/kg/day
same,NEL,[15],5 mg/kg/day
same,NOAEL,[15],5 mg/kg/day
same,LEL,[16]; [42],35.7 mg/kg/day
same,LOAEL,[16]; [42],35.7 mg/kg/day
same,NEL,[16]; [44],3.51 mg/kg/day
same,NOAEL,[16]; [44],3.51 mg/kg/day
same,LEL,[17]; [45],65.5 mg/kg/day
same,LOAEL,[17]; [45],65.5 mg/kg/day
same,NEL,[17]; [46],4.2 mg/kg/day
same,NOAEL,[17]; [46],4.2 mg/kg/day
same,LEL,[17]; [47],55.3 mg/kg/day
same,LOAEL,[17]; [47],55.3 mg/kg/day
same,NEL,[17]; [48],3.8 mg/kg/day
same,NOAEL,[17]; [48],3.8 mg/kg/day
same,LEL,[18]; [49],500 mg/kg/day
same,LOAEL,[18]; [49],500 mg/kg/day
same,NEL,[18]; [49],250 mg/kg/day
same,NOAEL,[18]; [49],250 mg/kg/day
same,LEL,[18]; [50],50 mg/kg/day
same,LOAEL,[18]; [50],50 mg/kg/day
same,NEL,[18]; [50],10 mg/kg/day
same,NOAEL,[18]; [50],10 mg/kg/day
same,LEL,[19]; systemic / clinical chemistry / bilirubin / total bilirubin,30 mg/kg/day
same,LOAEL,[19]; [51],150 mg/kg/day
same,NEL,[19]; [51],5 mg/kg/day
same,NOAEL,[19]; [51],30 mg/kg/day
same,NEL,[20]; systemic / clinical chemistry / urea nitrogen / urea + systemic / urinalysis / ph / ph + systemic / clinical chemistry / glucose / glucose…,618 mg/kg/day
same,LOAEL,[20]; [52],127 mg/kg/day
same,NOAEL,[20]; [52],30.6 mg/kg/day
CCCCC(CC)CO (centres undefined) [2-Ethyl-1-hexanol],LOAEL,[21]; systemic / in life observation / clinical signs / erythema + systemic / in life observation / clinical signs / scabbing + systemic / …,840 mg/kg/day
same,LEL,[21]; [53],252 mg/kg/day
same,NEL,[21]; [53],< 252 mg/kg/day
same,LOAEL,[22]; [54],> 500 mg/kg/day
same,NOAEL,[22]; [54],≥ 500 mg/kg/day
same,LEL,[22]; [55],50 mg/kg/day
same,NEL,[22]; [55],< 50 mg/kg/day
same,LEL,[23]; [56],50 mg/kg/day
same,NEL,[23]; [56],< 50 mg/kg/day
same,LOAEL,[23]; [57],> 750 mg/kg/day
same,NOAEL,[23]; [57],≥ 750 mg/kg/day
